Results: patent US20260232666A1, “COMPOSITIONS AND METHODS FOR INHIBITION OF RAS” (TheRas, Inc., priority 2023, published 2026)

How the values were obtained:
[1] = biological target: T1, GTP-loaded KRAS4b (amino acids 1-169) G12C/C118S protein (Homo sapiens, UniProt P01116, C118S/G12C); assay: Covalent cysteine 12 modification by MALDI-TOF MS, GTP-loaded KRAS G12C; assay type: binding; conditions: 15 minutes reaction time point
T1 construct: KRAS4b (amino acids 1-169) G12C/C118S protein; made in house
Outline: (§1)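 Protein (1 μM) was incubated with compound at a 1:2.5 protein:compound ratio in 20 mM HEPES, 150 mM NaCl, 1 mM MgCl2, pH 7.3, at room temperature in the dark. After 15 min, samples were mixed into sinapinic acid matrix and analysed by linear-mode MALDI-TOF. Modification is adduct peak height over summed unmodified plus adduct heights.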

[2] = biological target: T2, GDP-loaded KRAS4b (amino acids 1-169) G12C/C118S protein (Homo sapiens, UniProt P01116, C118S/G12C); assay: Covalent cysteine 12 modification by MALDI-TOF MS, GDP-loaded KRAS G12C; assay type: binding; conditions: 15 minutes reaction time point
T2 construct: KRAS4b (amino acids 1-169) G12C/C118S protein; made in house
Outline: as §1

[3] = biological target: T3, Avi-KRAS G12C (1-169) GppNHp/RAF1 RBD-3×FLAG (52-151) (Homo sapiens, UniProt P01116, G12C); assay: Raf1 RBD-KRAS G12C-GppNHp disruption assay (protein:protein interaction HTRF); assay type: biochemical
T3 construct: Avi-KRAS G12C (1-169) GppNHp; Avi (N)
Outline: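 HTRF measuring RAF1 RBD binding to GppNHp-loaded KRAS G12C (50 nM) in Tris pH 7.5, 100 mM NaCl, 5 mM MgCl2, 10% DMSO. Compound, KRAS, RBD and detection reagents each added sequentially with 1 h room-temperature incubations; 10-point titration; excitation 320 nm, emission 615 nm; activity as % of DMSO; IC50 derived.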

| Structure (SMILES) | GTP-KRAS G12C percent of modification [1] | GDP-KRAS G12C percent of modification [2] | IC50 [3] |
| --- | --- | --- | --- |
| C=CC(=O)N1CC[C@@H](N(CC)c2nc(OC[C@@H]3C[C@@H](OC)CN3C)nc3c(F)c(-c4ccc(F)c5sc(N)c(C#N)c45)c(C(F)(F)F)cc23)[C@H]1C (single isomer, unassigned) [Compound 116] | A (percent of modification ≥70%) | A (percent of modification ≥70%) | < 500 nM |
| C=CC(=O)N1CC[C@@H](N(CC)c2nc(OC[C@@H]3C[C@@H](OC)CN3C)nc3c(F)c(-c4ccc(F)c5sc(N)c(C#N)c45)c(C(F)(F)F)cc23)[C@H]1C (single isomer, unassigned) [Compound 117] | D (percent of modification <10%) | D (percent of modification <10%) | 5000 to 20000 nM |
| C=CC(=O)N1CC[C@@H](N(C)c2nc(OC[C@@H]3C[C@@H](OC)CN3C)nc3c(F)c(-c4ccc(F)c5sc(N)c(C#N)c45)c(C(F)(F)F)cc23)[C@H]1C (single isomer, unassigned) [Compound 172] | A (percent of modification ≥70%) | A (percent of modification ≥70%) | < 500 nM |
| C=CC(=O)N1CC[C@@H](N(C)c2nc(OC[C@H]3C[C@@H](OC)CN3C)nc3c(F)c(-c4ccc(F)c5sc(N)c(C#N)c45)c(C(F)(F)F)cc23)[C@H]1C (single isomer, unassigned) [Compound 173] | A (percent of modification ≥70%) | A (percent of modification ≥70%) | < 500 nM |
| C=CC(=O)N1CC[C@@H](N(C)c2nc(OC[C@@H]3C[C@@H](OC)CN3C)nc3c(F)c(-c4ccc(F)c5sc(N)c(C#N)c45)c(C(F)(F)F)cc23)[C@H]1C (single isomer, unassigned) [Compound 174] | D (percent of modification <10%) | D (percent of modification <10%) | 500 to 5000 nM |
| C=CC(=O)N1CC[C@@H](N(C)c2nc(OC[C@H]3C[C@@H](OC)CN3C)nc3c(F)c(-c4ccc(F)c5sc(N)c(C#N)c45)c(C(F)(F)F)cc23)[C@H]1C (single isomer, unassigned) [Compound 175] | D (percent of modification <10%) | D (percent of modification <10%) | 5000 to 20000 nM |
| C=CC(=O)N1CC[C@@H](N(C)c2nc(OC[C@@]34CCCN3C[C@H](F)C4)nc3c(F)c(-c4ccc(F)c5sc(N)c(C#N)c45)ccc23)[C@H]1CC [Compound 4] | A (percent of modification ≥70%) | A (percent of modification ≥70%) | < 500 nM |
| C=CC(=O)N1CCC(N(C)c2nc(OC[C@@]34CCCN3C[C@H](F)C4)nc3cc(-c4ccc(F)c5sc(N)c(C#N)c45)c(C#N)cc23)[C@H]1CC (stereo partly drawn) [Compound 7] | A (percent of modification ≥70%) | A (percent of modification ≥70%) | < 500 nM |
| C=CC(=O)N1CCC(N(CC)c2nc(OC[C@@]34CCCN3C[C@H](F)C4)nc3c(F)c(-c4ccc(F)c5sc(N)c(C#N)c45)c(C(F)(F)F)cc23)[C@H]1CC (stereo partly drawn) [Compound 8] | C (10%≤percent of modification <50%) | C (10%≤percent of modification <50%) | < 500 nM |
| C=CC(=O)N1CCC(N(C)c2nc(OC[C@@H]3CCCN3C)nc3c(F)c(-c4nc(N)cc(C)c4C(F)(F)F)c(Cl)cc23)[C@H]1C (stereo partly drawn) [Compound 9] | C (10%≤percent of modification <50%) | B (50≤percent of modification <70%) | < 500 nM |
| C=CC(=O)N1CCC(N(C)c2nc(OC[C@@]34CCCN3C[C@H](F)C4)nc3c(F)c(-c4nc(N)cc(C)c4C(F)(F)F)c(Cl)cc23)[C@H]1C (stereo partly drawn) [Compound 10] | B (50≤percent of modification <70%) | A (percent of modification ≥70%) | < 500 nM |
| C=CC(=O)N1CCC(N(CC)c2nc(OC[C@@]34CCCN3C[C@H](F)C4)nc3c(F)c(-c4ccc(F)c5sc(N)c(C#N)c45)ccc23)[C@H]1CC (stereo partly drawn) [Compound 11] | A (percent of modification ≥70%) | A (percent of modification ≥70%) | < 500 nM |
| C=CC(=O)N1CCC(N(CC)c2nc(OC[C@@]34CCCN3C[C@H](F)C4)nc3c(F)c(-c4ccc(F)c5sc(N)c(C#N)c45)c(Cl)cc23)[C@H]1CC (stereo partly drawn) [Compound 12] | C (10%≤percent of modification <50%) | C (10%≤percent of modification <50%) | < 500 nM |
| C=CC(=O)N1CCC(N(CC)c2nc(OC[C@@]34CCCN3C[C@H](F)C4)nc3cc(-c4ccc(F)c5sc(N)c(C#N)c45)c(C#N)cc23)[C@H]1CC (stereo partly drawn) [Compound 14] | B (50≤percent of modification <70%) | A (percent of modification ≥70%) | < 500 nM |
| C=CC(=O)N1CC[C@@H](N(CC)c2nc(OC[C@@]34CCCN3C[C@H](F)C4)nc3c(F)c(-c4ccc(F)c5sc(N)c(C#N)c45)ccc23)[C@H]1C [Compound 17, 4-(4-(((2R,3R)-1-acryloyl-2-methylpyrrolidin-3-yl)(ethyl)amino)-8-fluoro-2-(((2R,7aS)-2-fluorotetrahydro-1H-pyrrolizin-7a(5H)-yl)methoxy)quinazolin-7-yl)-2-amino-7-fluorobenzo[b]thiophene-3-carbonitrile] | A (percent of modification ≥70%) | A (percent of modification ≥70%) | < 500 nM |
| C=CC(=O)N1CC[C@@H](N(C)c2nc(OC[C@@]34CCCN3C[C@H](F)C4)nc3c(F)c(-c4ccc(F)c5sc(N)c(C#N)c45)c(C(F)(F)F)cc23)[C@H]1CC [Compound 18] | C (10%≤percent of modification <50%) | B (50≤percent of modification <70%) | < 500 nM |
| C=CC(=O)N1CC[C@@H](N(C)c2nc(OC[C@@]34CCCN3C[C@H](F)C4)nc3c(F)c(-c4ccc(F)c5sc(N)c(C#N)c45)c(Cl)cc23)[C@H]1CC [Compound 19] | C (10%≤percent of modification <50%) | C (10%≤percent of modification <50%) | < 500 nM |
| C=CC(=O)N1CC[C@@H](N(CC)c2nc(OC[C@@]34CCCN3C[C@H](F)C4)nc3c(F)c(-c4ccc(F)c5sc(N)c(C#N)c45)c(Cl)cc23)[C@H]1CC [Compound 20] | C (10%≤percent of modification <50%) | C (10%≤percent of modification <50%) | < 500 nM |
| C=CC(=O)N1CC[C@@H](N(C)c2nc(OC[C@@]34CCCN3C[C@H](F)C4)nc3cc(-c4ccc(F)c5sc(N)c(C#N)c45)c(F)cc23)[C@@H]1CC [Compound 22] | D (percent of modification <10%) | A (percent of modification ≥70%) | 500 to 5000 nM |
| C=CC(=O)N1CC[C@@H](N(C)c2nc(OC[C@@]34CCCN3C[C@H](F)C4)nc3c(F)c(-c4ccc(F)c5sc(N)c(C#N)c45)ccc23)[C@@H]1CC [Compound 23] | C (10%≤percent of modification <50%) | A (percent of modification ≥70%) | < 500 nM |
| C=CC(=O)N1CC[C@@H](N(C)c2nc(OC[C@@]34CCCN3C[C@H](F)C4)nc3cc(-c4ccc(F)c5sc(N)c(C#N)c45)c(C#N)cc23)[C@@H]1CC [Compound 24] | D (percent of modification <10%) | A (percent of modification ≥70%) | < 500 nM |
| C=CC(=O)N1CC[C@@H](N(CC)c2nc(OC[C@@]34CCCN3C[C@H](F)C4)nc3cc(-c4ccc(F)c5sc(N)c(C#N)c45)c(C#N)cc23)[C@H]1C [Compound 25] | A (percent of modification ≥70%) | A (percent of modification ≥70%) | < 500 nM |
| C=CC(=O)N1CC[C@@H](N(C)c2nc(OC[C@@]34CCCN3C[C@H](F)C4)nc3cc(-c4ccc(F)c5sc(N)c(C#N)c45)c(C#N)cc23)[C@@H]1C [Compound 27] | B (50≤percent of modification <70%) | A (percent of modification ≥70%) | < 500 nM |
